We go through 51 compounds from patent publication US8748483B2, “Use of substituted pyranone acid derivatives for the treatment of metabolic syndrome” (SANOFI, priority 2007, dated 2014).

For assay [1], the target named is T1, GPCR HM74A (niacin receptor) (Homo sapiens, UniProt Q8TDS4).
T1 construct: expressed in transfected cells; host or cells: HEK293
The assay can be described thus: FLIPR in vitro functional assay, intracellular Ca2+ in recombinant HEK293 cells expressing HM74A and Gα6qi4myr. It counts as cell-based. As to conditions: 100% = 1 μM niacin. The procedure: Function-testing assays were carried out by means of the FLIPR technique (“Fluorescence Imaging Plate Reader”, Molecular Devices Corp.). For this purpose, agonist-induced changes in the intracellular concentration of Ca^2+ in recombinant HEK293 cells which express both the GPCR HM74A (niacin receptor) and the hybrid G-protein Gα6qi4myr (see, for example, DE patent application 10033353) were determined.
For the investigations, cells were seeded into 96-well microtiter plates (60 000 cells/well) and allowed to grow overnight. The medium was removed and the cells were incubated in buffer which contained the fluorescent dye Fluo-4. After this loading with dye, the cells were washed, test substance was added, and changes in the intracellular Ca^2+ concentration were measured in the FLIPR apparatus. Results have been shown as percentage change relative to the control (0%: no test substance added; 100%:1 μM reference agonist niacin added), used to calculate dose/activity plots and EC50 values determined.

In a further assay the test system is lipolysis. In words: Inhibition of lipolysis in the whole animal after p.o. administration (FFA, glycerol, triglycerides in blood). It is filed as in vivo, Wistar rats. The procedure: The effect was tested on the whole animal (mouse, rat, hamster or dog), after a fasting period (e.g. of about 16 hours the substance is administered (e.g. p.o., iv., i.p., s.c.) and, with or without additional stimulation of endogenous lipolysis (e.g. by a bolus injection of 2 mg/kg i.p. isoprenaline), the effect of the test substance on lipolysis is determined on the basis of the liberated free fatty acids (FFA), glycerol and triglycerides by obtaining a blood sample (e.g. by retroorbital blood sampling) e.g. 15 min, 30, 60, 120 etc minutes after p.o. administration, and analyzing by standard methods of clinical chemistry (e.g. L. Thomas: Labor and Diagnose, 2nd edition, Medizinische Verlagsgesellschaft, Marburg/L. 1984; ISBN 3-921320-10-9)). The inhibition of lipolysis by the inhibitors is analyzed by comparing with the rate of lipolysis in correspondingly treated control animals.

Setting [2] is: 10 mg/kg po, 30 min, Wistar rats.
Setting [3] is: 10 mg/kg po, 60 min, Wistar rats.
Setting [4] is: 10 mg/kg po, 120 min, Wistar rats.
Setting [5] is: 10 mg/kg po, time 0, Wistar rats.
Where [6] appears, read: 3 mg/kg po, 15 min, Wistar rats.
[7] abbreviates: 3 mg/kg po, 30 min, Wistar rats.
Setting [8] is: 3 mg/kg po, 60 min, Wistar rats.
The mark [9] stands for this setting: 3 mg/kg po, 120 min, Wistar rats.
Setting [10] is: 3 mg/kg po, time 0, Wistar rats.
[11] abbreviates: 1 mg/kg po, 30 min, Wistar rats.
The mark [12] stands for this setting: 1 mg/kg po, 60 min, Wistar rats.
Setting [13] is: 1 mg/kg po, 120 min, Wistar rats.
Setting [14] is: 1 mg/kg po, time 0, Wistar rats.

T1 sequence (Q8TDS4 whole entry): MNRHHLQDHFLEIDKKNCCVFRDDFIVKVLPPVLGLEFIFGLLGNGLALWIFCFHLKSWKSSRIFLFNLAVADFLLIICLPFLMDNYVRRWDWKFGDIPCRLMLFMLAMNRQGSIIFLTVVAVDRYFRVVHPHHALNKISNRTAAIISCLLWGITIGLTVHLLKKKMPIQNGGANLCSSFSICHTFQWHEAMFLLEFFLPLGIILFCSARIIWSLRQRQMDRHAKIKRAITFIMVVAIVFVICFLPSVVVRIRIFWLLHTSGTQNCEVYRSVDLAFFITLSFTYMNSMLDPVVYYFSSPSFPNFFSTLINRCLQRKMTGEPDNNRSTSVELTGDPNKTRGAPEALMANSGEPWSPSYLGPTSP

In the case of `O=C(O)c1cc(=O)c(OCc2ccc([N+](=O)[O-])cc2)co1` [Example 9], the concentration giving a half-maximal response (EC50) in assay [1] worked out at 43.4 µM. As for `C/C=C/c1oc(C(=O)O)cc(=O)c1CCCC` [Example 38], the EC50 in assay [1] came to 0.14 µM. Still for that read-out and setting: as for `CCCCCc1coc(C(=O)O)cc1=O` [Example 46], the figure is 0.01 µM; as for `CC(C)Cc1coc(C(=O)O)cc1=O` [Example 51], 0.22 µM.

With `O=C(O)c1cc(=O)c(OCc2ccccc2F)co1` [Example 14], the EC50 in assay [1] is 12.1 µM. As to `C/C=C/c1oc(C(=O)O)cc(=O)c1OCc1ccc([N+](=O)[O-])cc1` [Example 17], in assay [1], the EC50 is 0.24 µM.

As for `CCCc1coc(C(=O)O)cc1=O` [Example 48, 5-propyl-4-oxo-4H-pyran-2-carboxylic acid], in assay [1], the 50% effective concentration (EC50) was 0.05 µM. Further, the “lipolysis (reduction in FFA, glycerol and triglycerides)” value in the assay with lipolysis (10 mg/kg po) was “distinctly reduced”. The FFA in the assay with lipolysis (setting [2]) stood at 0.19 mmol/L; in the assay with lipolysis (setting [3]), 0.19 mmol/L; in the assay on lipolysis (setting [4]), 0.16 mmol/L; in the assay with lipolysis (setting [5]) it was 0.51 mmol/L. Moreover, the Glycerol is 35 µmol/L in the assay with lipolysis (setting [2]), 26 µmol/L in the assay with lipolysis (setting [3]), 24 µmol/L in the assay with lipolysis (setting [4]) and 100 µmol/L with lipolysis (setting [5]). Moreover, the Triglycerides with lipolysis (setting [2]) stood at 0.36 mmol/L; with lipolysis (setting [3]) it was 0.25 mmol/L; in the assay on lipolysis (setting [4]) it was 0.27 mmol/L; in the assay with lipolysis (setting [5]) it was 0.41 mmol/L.

Turning to `Cc1cc(C)cc(COc2coc(C(=O)O)cc2=O)c1` [Example 11], the EC50 in assay [1] was found to be 31.2 µM. In the case of `N#Cc1cccc(COc2coc(C(=O)O)cc2=O)c1` [Example 15], the EC50 in assay [1] stood at 67.1 µM. For the compound `CC(C)CCc1coc(C(=O)O)cc1=O` [Example 49, 5-(3-methylbutyl)-4-oxo-4H-pyran-2-carboxylic acid], in assay [1], the EC50 stood at 0.21 µM. Take `Cc1ccc(/C=C/c2coc(C(=O)O)cc2=O)cc1` [Example 44]: in assay [1], the EC50 turned out to be 4.83 µM. With `C/C=C/c1oc(C(=O)O)cc(=O)c1OCC` [Example 20], in assay [1], the EC50 was determined as 0.73 µM. As to `CC(C)c1coc(C(=O)O)cc1=O` [Example 52], in assay [1], the EC50 was 2.69 µM. Regarding `C=CCOc1coc(C(=O)O)cc1=O` [Example 4], the half-maximal effective concentration (EC50) in assay [1] is 29.9 µM. Regarding `N#Cc1ccc(C(=O)Oc2coc(C(=O)O)cc2=O)cc1` [Example 34], the EC50 in assay [1] worked out at 0.31 µM. The same measure, in the same setting: with `C/C=C/c1oc(C(=O)O)cc(=O)c1OCc1ccc(C#N)cc1` [Example 18] the figure was 0.36 µM; with `CCCCCCOc1coc(C(=O)O)cc1=O` [Example 23], 34.2 µM. As to `O=C(O)c1cc(=O)c(OCc2ccc(Cl)cc2)co1` [Example 31], the EC50 in assay [1] worked out at 7.43 µM. Take `O=C(O)c1cc(=O)c(OCc2ccccc2)co1` [Example 3]: in assay [1], the EC50 is 28.8 µM.

Turning to `CCCc1cc(=O)cc(C(=O)O)o1` [Example 37, 6-propyl-4-oxo-4H-pyran-2-carboxylic acid], in assay [1], the EC50 was found to be 66.7 µM. Consider `O=C(O)c1cc(=O)c(OCCCF)co1` [Example 25], for which the EC50 in assay [1] was determined as 0.76 µM. `CCc1ccc(COc2coc(C(=O)O)cc2=O)cc1` [Example 30]: the EC50 in assay [1] is 3.24 µM. Consider `O=C(O)c1cc(=O)c(OCc2ccc(OC(F)(F)F)cc2)co1` [Example 33], for which the EC50 in assay [1] amounted to 22.4 µM. In the case of `CCCc1oc(C(=O)O)cc(=O)c1OCc1ccc(C)cc1` [Example 21, 5-(4-methylbenzyloxy)-4-oxo-6-propyl-4H-pyran-2-carboxylic acid], in assay [1], the EC50 turned out to be 4.4 µM. For the compound `O=C(O)c1cc(=O)c(/C=C/CCc2ccccc2)co1` [Example 45], in assay [1], the EC50 came to 10.8 µM. In the case of `CCCc1oc(C(=O)O)cc(=O)c1OCc1ccc(C#N)cc1` [Example 22], the EC50 in assay [1] was 45 µM.

Take `CC(C)c1ccc(COc2coc(C(=O)O)cc2=O)cc1` [Example 32]: in assay [1], the EC50 was found to be 1.48 µM. Regarding `C/C=C/c1oc(C(=O)O)cc(=O)c1OCCCCC` [Example 19], in assay [1], the EC50 came out at 0.39 µM. For `COC(=O)/C=C/c1coc(C(=O)O)cc1=O` [Example 39], the EC50 in assay [1] stood at 1.19 µM. Consider `O=C(O)c1cc(=O)c(OCc2ccc(C(F)(F)F)cc2)co1` [Example 29], for which the concentration for a half-maximal effect (EC50) in assay [1] came to 45.1 µM. Turning to `CCOC(=O)/C=C/c1coc(C(=O)O)cc1=O` [Example 40, 5-((E)-2-ethoxycarbonylvinyl)-4-oxo-4H-pyran-2-carboxylic acid], the EC50 in assay [1] amounted to 1.19 µM.

Turning to `O=C(O)c1cc(=O)c(OCC(F)(F)F)co1` [Example 24], the EC50 in assay [1] came out at 1 µM. As for `O=C(O)c1cc(=O)c(OCc2cccc([N+](=O)[O-])c2)co1` [Example 8], the EC50 in assay [1] came to 36.8 µM. For the compound `CCC(C)c1coc(C(=O)O)cc1=O` (stereo not drawn) [Example 50], in assay [1], the EC50 is 0.16 µM. Besides, the “lipolysis (reduction in FFA, glycerol and triglycerides)” value in the assay with lipolysis (3 mg/kg po) was “distinctly reduced”. Besides, the FFA with lipolysis (setting [6]) was 0.34 mmol/L; in the assay on lipolysis (setting [7]), 0.43 mmol/L; in the assay on lipolysis (setting [8]) it was 0.50 mmol/L; in the assay on lipolysis (setting [9]), 0.52 mmol/L; in the assay on lipolysis (setting [10]), 0.64 mmol/L. Besides, the Glycerol in the assay with lipolysis (setting [6]) worked out at 67 µmol/L; with lipolysis (setting [7]), 82 µmol/L; with lipolysis (setting [8]) it was 86 µmol/L; in the assay on lipolysis (setting [9]), 101 µmol/L; with lipolysis (setting [10]), 127 µmol/L. The Triglycerides was determined as 0.39 mmol/L with lipolysis (setting [6]); 0.36 mmol/L with lipolysis (setting [7]); 0.58 mmol/L with lipolysis (setting [8]); 0.71 mmol/L in the assay with lipolysis (setting [9]); 0.47 mmol/L in the assay on lipolysis (setting [10]). For `Cc1ccc(COc2coc(C(=O)O)cc2=O)cc1` [Example 2, 5-(4-methylbenzyloxy)-4-oxo-4H-pyran-2-carboxylic acid], the EC50 in assay [1] is 4.12 µM. As for `C/C=C/c1oc(C(=O)O)cc(=O)c1OCC(F)(F)F` [Example 36], the 50% effective concentration (EC50) in assay [1] is 0.07 µM. Turning to `C=C(CCC)c1coc(C(=O)O)cc1=O` [Example 42], the EC50 in assay [1] came out at 6.6 µM. On the same count and under the same terms, as for `CCCCOc1coc(C(=O)O)cc1=O` [Example 6], the figure is 52.9 µM.

With `CCCCc1coc(C(=O)O)cc1=O` [Example 47], in assay [1], the EC50 came to 0.01 µM. Also, in the assay on lipolysis (1 mg/kg po), the “lipolysis (reduction in FFA, glycerol and triglycerides)” value was “distinctly reduced”. The FFA was determined as 0.25 mmol/L with lipolysis (setting [11]), 0.37 mmol/L with lipolysis (setting [12]), 0.41 mmol/L with lipolysis (setting [13]) and 0.84 mmol/L in the assay on lipolysis (setting [14]). Also, the Glycerol with lipolysis (setting [11]) was 41 µmol/L; in the assay with lipolysis (setting [12]) it was 55 µmol/L; with lipolysis (setting [13]) it was 70 µmol/L; with lipolysis (setting [14]) it was 162 µmol/L. Moreover, the Triglycerides turned out to be 0.25 mmol/L in the assay on lipolysis (setting [11]), 0.37 mmol/L with lipolysis (setting [12]), 0.41 mmol/L in the assay with lipolysis (setting [13]) and 0.84 mmol/L in the assay with lipolysis (setting [14]).

For `CCC/C=C/c1coc(C(=O)O)cc1=O` [Example 43], in assay [1], the EC50 came to 1.03 µM. For `CC(C)OC(=O)/C=C/c1coc(C(=O)O)cc1=O` [Example 41], the EC50 in assay [1] is 6.87 µM.

For `CC(C)COc1coc(C(=O)O)cc1=O` [Example 26], the EC50 in assay [1] amounted to 45.3 µM.

For the compound `O=C(O)c1cc(=O)c(OCc2ccc(F)cc2)co1` [Example 12], the concentration giving a half-maximal response (EC50) in assay [1] amounted to 49.5 µM. With `O=C(O)c1cc(=O)c(OCc2cccc(F)c2)co1` [Example 7], the EC50 in assay [1] is 62.8 µM.

Regarding `O=C(O)c1cc(=O)c(OCc2ccc(OC(F)F)cc2)co1` [Example 28], in assay [1], the EC50 stood at 1.81 µM. With `Cc1ccc(C(=O)Oc2coc(C(=O)O)cc2=O)cc1` [Example 35], the EC50 in assay [1] worked out at 1.19 µM. As to `CC(C)Oc1coc(C(=O)O)cc1=O` [Example 27], in assay [1], the EC50 stood at 4.61 µM.

Regarding `O=C(O)c1cc(=O)c(OCc2cccc(Cl)c2)co1` [Example 13], in assay [1], the EC50 worked out at 19.5 µM. On to `CCCCCOc1coc(C(=O)O)cc1=O` [Example 5], for which the EC50 in assay [1] was found to be 1.2 µM.

Consider `C/C=C/c1oc(C(=O)O)cc(=O)c1OCc1ccc(C)cc1` [Example 16, 5-(4-methylbenzyloxy)-4-oxo-6-propenyl-4H-pyran-2-carboxylic acid], for which the EC50 in assay [1] amounted to 0.1 µM. On the same count and under the same terms, as for `N#Cc1ccc(COc2coc(C(=O)O)cc2=O)cc1` [Example 10], the figure is 14.7 µM.

A word on the EC50: it is the midpoint of the concentration-response curve.
